Patent publication US20060293307A1, “Oxazolidinone derivatives as antimicrobials” (priority 2002, published 2006)
Read-outs that look alike come from different tables or passages of the source.

Key:
Assay in all cases: MIC, agar incorporation method
[1] = system: S. epidermidis ATCC 12228; type: cell-based, Staphylococcus epidermidis; conditions: Staphylococcus epidermidis, ATCC12228
S. aureus (MRSA) 21299 = type: cell-based, Staphylococcus aureus; conditions: Staphylococcus aureus
E. faecium 6A (VRE) = type: cell-based, Enterococcus faecium; conditions: Enterococcus faecium
S. pneumoniae AB 23 = type: cell-based, Streptococcus pneumoniae; conditions: Streptococcus pneumoniae, AB23
E. durans 581 = type: cell-based; conditions: Enterococcus durans
[2] = system: Serratia marcescens 12999; type: cell-based
S. aureus (MRSA) 15187 = type: cell-based, Staphylococcus aureus; conditions: Staphylococcus aureus
E. faecalis 29212 = type: cell-based; conditions: Enterococcus faecalis
S. pneumoniae AB 16 = type: cell-based, Streptococcus pneumoniae; conditions: Streptococcus pneumoniae, AB16
S. pyogenes 19615 = type: cell-based, Streptococcus pyogenes; conditions: Streptococcus pyogenes
S. pneumoniae AB 25 = type: cell-based, Streptococcus pneumoniae; conditions: Streptococcus pneumoniae, AB25
S. pneumoniae AB 14 = type: cell-based, Streptococcus pneumoniae; conditions: Streptococcus pneumoniae, AB14
S. pneumoniae ATCC 6303 = type: cell-based, Streptococcus pneumoniae; conditions: Streptococcus pneumoniae, ATCC6303
S. pneumoniae CS1221 = type: cell-based, Streptococcus pneumoniae; conditions: Streptococcus pneumoniae
S. pneumoniae AB 17 = type: cell-based, Streptococcus pneumoniae; conditions: Streptococcus pneumoniae, AB17
K. oxytoca 49131 = type: cell-based; conditions: Klebsiella oxytoca
S. pyogenes 25147 = type: cell-based, Streptococcus pyogenes; conditions: Streptococcus pyogenes
S. pneumoniae AB 21 = type: cell-based, Streptococcus pneumoniae; conditions: Streptococcus pneumoniae, AB21
Moraxella M1 = type: cell-based
P. aeruginosa ATCC 27853 = type: cell-based; conditions: Pseudomonas aeruginosa, ATCC27853
S. pneumoniae AB 10 = type: cell-based, Streptococcus pneumoniae; conditions: Streptococcus pneumoniae, AB10
S. pneumoniae AB4 = type: cell-based, Streptococcus pneumoniae; conditions: Streptococcus pneumoniae
[3] = system: S. aureus (MRSA 33) Cipro R; type: cell-based, Staphylococcus aureus; conditions: Staphylococcus aureus
S. pneumoniae AB 22 = type: cell-based, Streptococcus pneumoniae; conditions: Streptococcus pneumoniae, AB22
E. faecalis 21777 = type: cell-based; conditions: Enterococcus faecalis
S. pneumoniae AB 30 = type: cell-based, Streptococcus pneumoniae; conditions: Streptococcus pneumoniae, AB30
E. coli 25922 = type: cell-based; conditions: Escherichia coli
S. epidermidis 823 = type: cell-based, Staphylococcus epidermidis; conditions: Staphylococcus epidermidis
S. epidermidis 358 = type: cell-based, Staphylococcus epidermidis; conditions: Staphylococcus epidermidis
Acinetobacter 9956 = type: cell-based
S. pneumoniae AB 29 = type: cell-based, Streptococcus pneumoniae; conditions: Streptococcus pneumoniae, AB29
S. pneumoniae AB-2 = type: cell-based, Streptococcus pneumoniae; conditions: Streptococcus pneumoniae, AB2
E. faecium 398(VRE) = type: cell-based, Enterococcus faecium; conditions: Enterococcus faecium
S. aureus ATCC 25923 = type: cell-based, Staphylococcus aureus; conditions: Staphylococcus aureus, ATCC25923
S. haemo ATCC 29970 = type: cell-based
S. pyogenes 20361 = type: cell-based, Streptococcus pyogenes; conditions: Streptococcus pyogenes
[4] = S. No. 10, S. epidermidis ATCC 12228, read-out: MIC
[5] = S. No. 5, S. aureus (MRSA) 21299, read-out: MIC
[6] = S. No. 21, E. faecium 6A (VRE), read-out: MIC
[7] = S. No. 43, S. pneumoniae AB 23, read-out: MIC
[8] = S. No. 24, E. durans 581, read-out: MIC
[9] = S. No. 29, Serratia marcescens 12999, read-out: MIC
[10] = S. No. 4, S. aureus (MRSA) 15187, read-out: MIC
[11] = S. No. 17, E. faecalis 29212, read-out: MIC
[12] = S. No. 39, S. pneumoniae AB 16, read-out: MIC
[13] = S. No. 51, S. pyogenes 19615, read-out: MIC
[14] = S. No. 45, S. pneumoniae AB 25, read-out: MIC
[15] = S. No. 37, S. pneumoniae AB 14, read-out: MIC
[16] = S. No. 50, S. pneumoniae ATCC 6303, read-out: MIC
[17] = S. No. 34, S. pneumoniae CS1221, read-out: MIC
[18] = S. No. 40, S. pneumoniae AB 17, read-out: MIC
[19] = S. No. 27, K. oxytoca 49131, read-out: MIC
[20] = S. No. 52, S. pyogenes 25147, read-out: MIC
[21] = S. No. 41, S. pneumoniae AB 21, read-out: MIC
[22] = S. No. 58, Moraxella M1, read-out: MIC
[23] = S. No. 28, P. aeruginosa ATCC 27853, read-out: MIC
[24] = S. No. 35, S. pneumoniae AB 10, read-out: MIC
[25] = S. No. 33, S. pneumoniae AB4, read-out: MIC
[26] = S. No. 7, S. aureus (MRSA 33) Cipro R, read-out: MIC
[27] = S. No. 42, S. pneumoniae AB 22, read-out: MIC
[28] = S. No. 18, E. faecalis 21777, read-out: MIC
[29] = S. No. 47, S. pneumoniae AB 30, read-out: MIC
[30] = S. No. 25, E. coli 25922, read-out: MIC
[31] = S. No. 12, S. epidermidis 823, read-out: MIC
[32] = S. No. 14, S. epidermidis 358, read-out: MIC
[33] = S. No. 30, Acinetobacter 9956, read-out: MIC
[34] = S. No. 46, S. pneumoniae AB 29, read-out: MIC
[35] = S. No. 31, S. pneumoniae AB-2, read-out: MIC
[36] = S. No. 22, E. faecium 398(VRE), read-out: MIC
[37] = S. No. 1, organism cell empty, read-out: MIC
[38] = S. No. 15, S. haemo ATCC 29970, read-out: MIC
[39] = S. No. 53, S. pyogenes 20361, read-out: MIC

Measured: MIC

CC(=O)NC[C@H]1CN(c2ccc(N3CCN(c4ccc(C=O)s4)CC3)c(F)c2)C(=O)O1 [Compound No. 2, (S)—N-[[3-[3-Fluoro-4-[4-(5-formyl-2-thienyl)-1-piperazinyl]phenyl]-2-oxo-5-oxazolidinyl]methyl]acetamide]
> 16 µg/mL: [2]; [9] | K. oxytoca 49131; [19] | P. aeruginosa ATCC 27853; [23] | E. coli 25922; [30] | Acinetobacter 9956; [33]
1 µg/mL: E. faecium 6A (VRE); [6] | S. aureus ATCC 25923; [37]
0.5 µg/mL: [1]; [4] | S. aureus (MRSA) 21299; [5] | S. pneumoniae AB 23; [7] | E. durans 581; [8] | S. aureus (MRSA) 15187; [10] | S. pyogenes 19615; [13] | S. pneumoniae ATCC 6303; [16] | S. pneumoniae CS1221; [17] | S. pneumoniae AB 17; [18] | S. pyogenes 25147; [20] | S. pneumoniae AB 21; [21] | Moraxella M1; [22] | S. pneumoniae AB4; [25] | [3]; [26] | S. pneumoniae AB 22; [27] | E. faecalis 21777; [28] | S. pneumoniae AB 30; [29] | S. epidermidis 823; [31] | S. epidermidis 358; [32] | E. faecium 398(VRE); [36] | S. haemo ATCC 29970; [38] | S. pyogenes 20361; [39]
< 0.25 µg/mL: E. faecalis 29212; [11] | S. pneumoniae AB 16; [12] | S. pneumoniae AB 25; [14] | S. pneumoniae AB 14; [15] | S. pneumoniae AB 10; [24] | S. pneumoniae AB 29; [34] | S. pneumoniae AB-2; [35]

CC(=O)NC[C@H]1CN(c2ccc(N3CCN(c4ccc([N+](=O)[O-])o4)CC3)c(F)c2)C(=O)O1 [Compound No. 4, (S)—N-[[3-[3-Fluoro-4-[4-(5-nitro-2-furyl)-1-piperazinyl]phenyl]-2-oxo-5-oxazolidinyl]methyl]acetamide]
2 µg/mL: S. pneumoniae AB 14; [15]
4 µg/mL: [1]; [4] | E. durans 581; [8] | S. pyogenes 19615; [13] | S. pneumoniae AB 25; [14] | S. pneumoniae ATCC 6303; [16] | S. pneumoniae AB 17; [18] | S. pyogenes 25147; [20] | S. pneumoniae AB 10; [24] | S. pneumoniae AB 30; [29] | S. epidermidis 823; [31] | S. epidermidis 358; [32] | S. pneumoniae AB 29; [34] | E. faecium 398(VRE); [36] | S. haemo ATCC 29970; [38] | S. pyogenes 20361; [39]
> 16 µg/mL: [2]; [9] | K. oxytoca 49131; [19] | Moraxella M1; [22] | P. aeruginosa ATCC 27853; [23] | E. coli 25922; [30] | Acinetobacter 9956; [33]
16 µg/mL: S. aureus ATCC 25923; [37]
8 µg/mL: S. aureus (MRSA) 21299; [5] | E. faecium 6A (VRE); [6] | S. pneumoniae AB 23; [7] | S. aureus (MRSA) 15187; [10] | E. faecalis 29212; [11] | S. pneumoniae AB 16; [12] | S. pneumoniae CS1221; [17] | S. pneumoniae AB 21; [21] | S. pneumoniae AB4; [25] | [3]; [26] | S. pneumoniae AB 22; [27] | E. faecalis 21777; [28] | S. pneumoniae AB-2; [35]

CN[C@H](CC(C)C)C(=O)N[C@H]1C(=O)N[C@@H](CC(N)=O)C(=O)N[C@H]2C(=O)N[C@H]3C(=O)N[C@H](C(=O)N[C@H](C(=O)O)c4cc(O)cc(O)c4-c4cc3ccc4O)[C@H](O)c3ccc(c(Cl)c3)Oc3cc2cc(c3O[C@@H]2O[C@H](CO)[C@@H](O)[C@H](O)[C@H]2O[C@H]2C[C@](C)(N)[C@H](O)[C@H](C)O2)Oc2ccc(cc2Cl)[C@H]1O [Vancomycin, reference compound]
2 µg/mL: E. faecalis 21777; 21777 | S. epidermidis 823; 823 | S. epidermidis 358; 358
1 µg/mL: [1] | S. aureus ATCC 25923 | S. haemo ATCC 29970
0.5 µg/mL: S. aureus (MRSA) 21299; MRSA | S. aureus (MRSA) 15187; MRSA | S. pyogenes 19615; 19615 | S. pyogenes 25147; 25147 | [3]; MRSA | S. pneumoniae AB-2 | S. pyogenes 20361; 20361
0.25 µg/mL: S. pneumoniae AB 23 | S. pneumoniae AB 16 | S. pneumoniae AB 25 | S. pneumoniae AB 14 | S. pneumoniae ATCC 6303 | S. pneumoniae CS1221; CS1221 | S. pneumoniae AB 17 | S. pneumoniae AB 21 | S. pneumoniae AB 10 | S. pneumoniae AB4; AB4 | S. pneumoniae AB 22 | S. pneumoniae AB 30 | S. pneumoniae AB 29
> 16 µg/mL: E. faecium 6A (VRE); VRE | E. durans 581; 581 | [2]; Serratia marcescens, 12999 | K. oxytoca 49131; 49131 | P. aeruginosa ATCC 27853 | E. coli 25922; 25922 | Acinetobacter 9956; Acinetobacter, 9956 | E. faecium 398(VRE); VRE
> 8 µg/mL: Moraxella M1; Moraxella, M1
4 µg/mL: E. faecalis 29212; 29212
